Key:
RXRγ = biological target: T1, RXRγ (Homo sapiens, UniProt P48443); assay: ligand binding assay, RXRγ; conditions: read-out: RXR Bind Ki γ
T1 sequence (P48443 1-463): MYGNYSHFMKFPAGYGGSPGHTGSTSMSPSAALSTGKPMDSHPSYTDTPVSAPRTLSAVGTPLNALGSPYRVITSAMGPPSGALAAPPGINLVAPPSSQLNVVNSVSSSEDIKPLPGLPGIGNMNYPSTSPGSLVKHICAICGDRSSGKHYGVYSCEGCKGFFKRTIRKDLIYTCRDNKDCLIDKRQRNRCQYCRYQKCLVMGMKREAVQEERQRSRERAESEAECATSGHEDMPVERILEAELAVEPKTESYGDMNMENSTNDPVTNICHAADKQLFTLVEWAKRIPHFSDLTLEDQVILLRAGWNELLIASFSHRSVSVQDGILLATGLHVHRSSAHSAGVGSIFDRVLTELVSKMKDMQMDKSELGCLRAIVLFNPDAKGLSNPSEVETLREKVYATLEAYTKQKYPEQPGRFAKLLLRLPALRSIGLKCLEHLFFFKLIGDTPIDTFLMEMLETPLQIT
From the text: (§1) Other assays described below, measure the ability of the compounds of the present invention to bind to, and/or activate various retinoid receptor subtypes. When in these assays a compound binds to a given receptor subtype and activates the transcription of a reporter gene through that subtype, then the compound is considered an agonist of that receptor subtype. […] In the below described assays the ability of the compounds to bind to RARα, RARβ, RARγ, RXRα, RXRβ and RXRγ receptors, and the ability or inability of the compounds to activate transcription of a reporter gene through these receptor subtypes can be tested. […] However, some of the compounds of the invention may behave as retinoid antagonists or partial antagonists and/or as inverse agonists. Because of the complex distribution of the different retinoid receptors in various organs of the mammalian body partial agonists and partial antagonists and compounds which have the characteristics of both may lend themselves to particularly useful therapeutic applications and may avoid serious side effects of conventional retinoid drugs.
(§2) A holoreceptor transactivation assay and a ligand binding assay which measure the antagonist/agonist like activity of the compounds of the invention, or their ability to bind to the several retinoid receptor subtypes, respectively, are described in published PCT Application No. WO WO93/11755 (particularly on pages 30-33 and 37-41) published on Jun. 24, 1993, the specification of which is also incorporated herein by reference. A detailed experimental procedure for holoreceptor transactivations has been described by Heyman et al. Cell 68, 397-406, (1992); Allegretto et al. J. Biol. Chem. 268, 26625-26633, and Mangelsdorf et al. The Retinoids: Biology, Chemistry and Medicine, pp 319-349, Raven Press Ltd., New York, which are expressly incorporated herein by reference. The results obtained in this assay are expressed in EC50 numbers, as they are also in the chimeric receptor transactivation assay. The results of ligand binding assay are expressed in Kd numbers. (See Cheng et al. Biochemical Pharmacology Vol. 22 pp 3099-3108, expressly incorporated herein by reference.)
(§3) Table 1 discloses the activity of certain exemplary compounds of the invention in the above-described chimeric receptor transactivation assay, holoreceptor transactivation assay and a ligand binding assays. Particularly, the transactivation data pertaining to RAR receptors were obtained in the chimeric assay, and the data pertaining to transactivation of RXR receptors were obtained in the holoreceptor transactivation assay.

RARα = biological target: T2, RARα (Homo sapiens, UniProt P10276); assay: ligand binding assay, RARα; conditions: read-out: RAR Bind Ki α
T2 sequence (P10276 1-462): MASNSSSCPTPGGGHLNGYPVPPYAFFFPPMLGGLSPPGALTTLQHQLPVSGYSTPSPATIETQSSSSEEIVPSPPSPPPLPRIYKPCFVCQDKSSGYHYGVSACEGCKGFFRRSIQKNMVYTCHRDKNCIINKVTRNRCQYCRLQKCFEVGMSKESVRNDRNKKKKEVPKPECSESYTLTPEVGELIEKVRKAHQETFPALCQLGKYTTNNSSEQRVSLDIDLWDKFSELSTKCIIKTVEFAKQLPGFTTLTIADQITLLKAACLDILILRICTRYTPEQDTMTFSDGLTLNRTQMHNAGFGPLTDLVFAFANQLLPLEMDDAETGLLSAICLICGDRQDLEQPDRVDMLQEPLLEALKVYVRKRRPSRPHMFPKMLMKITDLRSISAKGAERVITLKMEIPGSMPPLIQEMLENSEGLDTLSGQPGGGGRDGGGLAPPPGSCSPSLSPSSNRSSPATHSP
From the text: as §1, §2, §3

RARγ = biological target: T3, RARγ (Homo sapiens, UniProt P13631); assay: ligand binding assay, RARγ; conditions: read-out: RAR Bind Ki γ
T3 sequence (P13631 1-454): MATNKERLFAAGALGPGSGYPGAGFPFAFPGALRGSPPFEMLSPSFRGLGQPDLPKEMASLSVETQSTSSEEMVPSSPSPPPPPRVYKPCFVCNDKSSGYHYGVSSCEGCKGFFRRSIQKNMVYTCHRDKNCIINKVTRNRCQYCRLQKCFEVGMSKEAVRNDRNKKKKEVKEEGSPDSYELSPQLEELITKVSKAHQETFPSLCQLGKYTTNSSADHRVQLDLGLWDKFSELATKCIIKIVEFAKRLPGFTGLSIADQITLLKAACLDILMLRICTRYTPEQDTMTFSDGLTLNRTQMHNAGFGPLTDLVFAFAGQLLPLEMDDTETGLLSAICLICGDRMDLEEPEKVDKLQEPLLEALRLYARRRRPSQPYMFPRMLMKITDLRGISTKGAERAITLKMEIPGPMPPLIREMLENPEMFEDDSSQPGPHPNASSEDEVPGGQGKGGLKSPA
From the text: as §1, §2, §3

RXRβ = biological target: T4, RXRβ (Homo sapiens, UniProt P28702); assay: ligand binding assay, RXRβ; conditions: read-out: RXR Bind Ki β
T4 sequence (P28702 1-533): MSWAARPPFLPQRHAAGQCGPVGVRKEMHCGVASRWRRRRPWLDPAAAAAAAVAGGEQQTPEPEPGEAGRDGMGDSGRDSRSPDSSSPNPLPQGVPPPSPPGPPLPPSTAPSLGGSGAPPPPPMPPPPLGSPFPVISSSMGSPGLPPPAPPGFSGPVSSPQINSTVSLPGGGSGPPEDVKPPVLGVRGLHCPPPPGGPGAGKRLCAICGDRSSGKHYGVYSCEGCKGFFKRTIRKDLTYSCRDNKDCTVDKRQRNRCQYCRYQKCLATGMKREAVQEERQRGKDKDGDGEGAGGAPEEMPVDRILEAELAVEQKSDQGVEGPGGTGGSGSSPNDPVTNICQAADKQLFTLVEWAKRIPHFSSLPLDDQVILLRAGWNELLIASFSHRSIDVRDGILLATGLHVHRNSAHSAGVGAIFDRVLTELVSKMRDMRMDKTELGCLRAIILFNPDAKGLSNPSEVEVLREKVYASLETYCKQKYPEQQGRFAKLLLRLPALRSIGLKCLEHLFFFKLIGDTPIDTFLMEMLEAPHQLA
From the text: as §1, §2, §3

CCN(c1ccc(C(=O)O)cc1)c1ccc2c(c1)C(C)(C)CC(=O)N2C(C)C [Compound 6, 4-[(1-Isopropyl-4,4-dimethyl-2-oxo-1,2,3,4-tetrahydroquinolin-6-yl)ethylamino]benzoic Acid]
Ki (RXRγ): > 10 µM | Ki (RARα): 10 µM | Ki (RARγ): > 30 µM

CC(C)N1CCC(C)(C)c2cc(N(C)c3ccc(C(=O)O)cc3)ccc21 [Compound 10, 4-[(1-Isopropyl-4,4-dimethyl-1,2,3,4-tetrahydroquinolin-6-yl)methylamino]benzoic Acid]
Ki (RXRβ): > 1 µM | Ki (RXRγ): > 10 µM | Ki (RARα): > 10 µM | Ki (RARγ): > 10 µM

CCN(c1ccc(C(=O)O)cc1)c1ccc2c(c1)C(C)(C)CCN2C(C)C [Compound 12, 4-[(1-Isopropyl-4,4-dimethyl-1,2,3,4-tetrahydroquinolin-6-yl)ethylamino]benzoic acid]
Ki (RXRβ): 0.273 µM | Ki (RXRγ): 1.3 µM | Ki (RARα): 0.467 µM | Ki (RARγ): 1 µM

CC(C)CCN(c1ccc(C(=O)O)cc1)c1ccc2c(c1)C(C)(C)CCN2C(C)C [Compound 14, 4-[(1-Isopropyl-4,4-dimethyl-1,2,3,4-tetrahydroquinolin-6-yl)(3-methylbutyl)amino]-benzoic Acid]
Ki (RXRβ): 0.778 µM | Ki (RXRγ): > 1 µM | Ki (RARα): 0.34 µM | Ki (RARγ): 1.5 µM

Cc1cc2c(cc1N(C)c1ccc(C(=O)O)cc1)C(C)(C)CCN2C(C)C [Compound 22, 4-[(1-Isopropyl-4,4,7-trimethyl-1,2,3,4-tetrahydroquinolin-6-yl)methylamino]benzoic acid]
Ki (RXRβ): 1.1 µM | Ki (RXRγ): > 1 µM | Ki (RARα): > 10 µM | Ki (RARγ): 1.7 µM

CCN(c1ccc(C(=O)O)cc1)c1cc2c(cc1C)N(C(C)C)CCC2(C)C [Compound 24, 4-[(1-Isopropyl-4,4,7-trimethyl-1,2,3,4-tetrahydroquinolin-6-yl)ethylamino]benzoic acid]
Ki (RXRβ): 1.1 µM | Ki (RXRγ): > 1 µM | Ki (RARα): > 10 µM | Ki (RARγ): 9.2 µM

Cc1cc2c(cc1N(CC1CC1)c1ccc(C(=O)O)cc1)C(C)(C)CCN2C(C)C [Compound 26, 4-[(1-Isopropyl-4,4,7-trimethyl-1,2,3,4-tetrahydro-quinolin-6-yl)(cyclopropylmethyl)amino]benzoic acid]
Ki (RXRβ): 0.386 µM | Ki (RXRγ): 1.3 µM | Ki (RARα): 15 µM | Ki (RARγ): 4.7 µM

CCN(c1ccc(C(=O)O)cc1)c1ccc2c(c1)N(C(C)C)CCC2(C)C [Compound 38, 4-[(1-Isopropyl-4,4-dimethyl-1,2,3,4-tetrahydroquinolin-7-yl)ethylamino]benzoic acid]
Ki (RXRβ): 0.057 µM | Ki (RXRγ): 0.027 µM | Ki (RARα): > 10 µM | Ki (RARγ): 6.3 µM

CC(C)CN(c1ccc(C(=O)O)cc1)c1ccc2c(c1)N(C(C)C)CCC2(C)C [Compound 39, 4-[(1-Isopropyl-4,4-dimethyl-1 2,3,4-tetrahydroquinolin-7-yl)isobutylamino]benzoic acid]
Ki (RXRβ): 0.133 µM | Ki (RXRγ): 0.06 µM | Ki (RARα): 6.7 µM | Ki (RARγ): 2.8 µM

CC(C)N1CCC(C)(C)c2ccc(N(CC3CC3)c3ccc(C(=O)O)cc3)cc21 [Compound 40, 4-[(1-Isolpropyl-4,4-dimethyl-1,2,3,4-tetrahydroquinolin-7-yl)(cylopropylmethyl)amino]benzoic acid]
Ki (RXRβ): 0.042 µM | Ki (RXRγ): 0.034 µM | Ki (RARα): 5.1 µM | Ki (RARγ): 3.5 µM

Cc1cc2c(cc1Nc1ccc(C(=O)O)cc1)N(C(C)C)CCC2(C)C [Compound 50, 4-(1-Isopropyl-4,4,6-trimethyl-1,2,3,4-tetrahydro-quinolin-7-ylamino)-benzoic acid]
Ki (RXRβ): 0.262 µM | Ki (RXRγ): > 1 µM | Ki (RARα): > 10 µM | Ki (RARγ): > 10 µM

Cc1cc2c(cc1N(C)c1ccc(C(=O)O)cc1)N(C(C)C)CCC2(C)C [Compound 51, 4-[(1-Isopropyl-4,4,6-trimethyl-1,2,3,4-tetrahydro-quinolin-7-yl)-methyl-amino]-benzoic acid]
Ki (RXRβ): 0.142 µM | Ki (RXRγ): 0.317 µM | Ki (RARα): > 10 µM | Ki (RARγ): > 10 µM

CCN(c1ccc(C(=O)O)cc1)c1cc2c(cc1C)C(C)(C)CCN2C(C)C [Compound 52, 4-[-(1-Isopropyl-4,4,6-trimethyl-1,2,3,4-tetrahydro-quinolin-7-yl)ethylamino]-benzoic acid]
Ki (RXRβ): 0.099 µM | Ki (RXRγ): 0.038 µM | Ki (RARα): 9.6 µM | Ki (RARγ): 10 µM

CCCN(c1ccc(C(=O)O)cc1)c1cc2c(cc1C)C(C)(C)CCN2C(C)C [Compound 53, 4-[(1-Isopropyl-4,4,6-trimethyl-1,2,3,4-tetrahydro-quinolin-7-yl)-propyl-amino]-benzoic acid]
Ki (RXRβ): 0.043 µM | Ki (RXRγ): 0.095 µM | Ki (RARα): 3.01 µM | Ki (RARγ): 17 µM
